Assay results published in patent US9334269B2, “Carboxamides as inhibitors of voltage-gated sodium channels” (AMGEN INC., priority 2010, dated 2016).
One block for each molecule: values may come before it.

Target: T1, human Nav1.7 (hNav1.7) (Homo sapiens, UniProt Q15858)
T1 construct: expressed in transfected cells
Assay: hNav1.7 whole-cell patch-clamp electrophysiology (automated PatchXpress 7000A or manual) in stably expressing 293 cells
Assay type: cell-based
Settings: average IC50, human Nav1.7
Description: Compounds were tested on human Nav1.7 (hNav1.7) expressed stably in 293 cells, which have no endogenous sodium channels. Two forms of whole-cell patch-clamp assays were used. In both, peak current through Nav1.7 was evoked by a depolarizing voltage pulse, and currents were monitored as a function of time in response to exposure to several different concentrations of drug. Automated electrophysiology uses the PatchXpress 7000A system. Up to sixteen cells at a time were voltage-clamped in parallel, and the steady-state voltage dependence of inactivation was determined experimentally for each cell. For each cell, fractional inactivation was set at 20%, and peak current through Nav1.7 as a function of time was measured in response to increasing concentrations of test compound. Manual electrophysiology refers to conventional whole-cell patch-clamping (Hamill et al., 1981). After formation of the whole-cell clamp, cells were lifted off the bottom of the dish with the patch pipette and positioned directly in front of an array of glass microperfusion tubes each with internal diameter about 250 microns, with individual compound concentrations flowing from each tube. Current as a function of time in response to increasing drug concentrations was measured with Nav1.7 fully in the resting state (holding voltage set to −140 mV) and on the same cells with the holding voltage set to produce about 20% inactivation. Compounds were not applied for a prespecified time, but for as long as required to achieve a stable level of block. For both forms of electrophysiology, offline analysis was used to correct for rundown of channel current and to determine percent inhibition as a function of drug concentration. IC50 were determined by fitting to the Hill equation.

T1 sequence (Q15858 whole entry): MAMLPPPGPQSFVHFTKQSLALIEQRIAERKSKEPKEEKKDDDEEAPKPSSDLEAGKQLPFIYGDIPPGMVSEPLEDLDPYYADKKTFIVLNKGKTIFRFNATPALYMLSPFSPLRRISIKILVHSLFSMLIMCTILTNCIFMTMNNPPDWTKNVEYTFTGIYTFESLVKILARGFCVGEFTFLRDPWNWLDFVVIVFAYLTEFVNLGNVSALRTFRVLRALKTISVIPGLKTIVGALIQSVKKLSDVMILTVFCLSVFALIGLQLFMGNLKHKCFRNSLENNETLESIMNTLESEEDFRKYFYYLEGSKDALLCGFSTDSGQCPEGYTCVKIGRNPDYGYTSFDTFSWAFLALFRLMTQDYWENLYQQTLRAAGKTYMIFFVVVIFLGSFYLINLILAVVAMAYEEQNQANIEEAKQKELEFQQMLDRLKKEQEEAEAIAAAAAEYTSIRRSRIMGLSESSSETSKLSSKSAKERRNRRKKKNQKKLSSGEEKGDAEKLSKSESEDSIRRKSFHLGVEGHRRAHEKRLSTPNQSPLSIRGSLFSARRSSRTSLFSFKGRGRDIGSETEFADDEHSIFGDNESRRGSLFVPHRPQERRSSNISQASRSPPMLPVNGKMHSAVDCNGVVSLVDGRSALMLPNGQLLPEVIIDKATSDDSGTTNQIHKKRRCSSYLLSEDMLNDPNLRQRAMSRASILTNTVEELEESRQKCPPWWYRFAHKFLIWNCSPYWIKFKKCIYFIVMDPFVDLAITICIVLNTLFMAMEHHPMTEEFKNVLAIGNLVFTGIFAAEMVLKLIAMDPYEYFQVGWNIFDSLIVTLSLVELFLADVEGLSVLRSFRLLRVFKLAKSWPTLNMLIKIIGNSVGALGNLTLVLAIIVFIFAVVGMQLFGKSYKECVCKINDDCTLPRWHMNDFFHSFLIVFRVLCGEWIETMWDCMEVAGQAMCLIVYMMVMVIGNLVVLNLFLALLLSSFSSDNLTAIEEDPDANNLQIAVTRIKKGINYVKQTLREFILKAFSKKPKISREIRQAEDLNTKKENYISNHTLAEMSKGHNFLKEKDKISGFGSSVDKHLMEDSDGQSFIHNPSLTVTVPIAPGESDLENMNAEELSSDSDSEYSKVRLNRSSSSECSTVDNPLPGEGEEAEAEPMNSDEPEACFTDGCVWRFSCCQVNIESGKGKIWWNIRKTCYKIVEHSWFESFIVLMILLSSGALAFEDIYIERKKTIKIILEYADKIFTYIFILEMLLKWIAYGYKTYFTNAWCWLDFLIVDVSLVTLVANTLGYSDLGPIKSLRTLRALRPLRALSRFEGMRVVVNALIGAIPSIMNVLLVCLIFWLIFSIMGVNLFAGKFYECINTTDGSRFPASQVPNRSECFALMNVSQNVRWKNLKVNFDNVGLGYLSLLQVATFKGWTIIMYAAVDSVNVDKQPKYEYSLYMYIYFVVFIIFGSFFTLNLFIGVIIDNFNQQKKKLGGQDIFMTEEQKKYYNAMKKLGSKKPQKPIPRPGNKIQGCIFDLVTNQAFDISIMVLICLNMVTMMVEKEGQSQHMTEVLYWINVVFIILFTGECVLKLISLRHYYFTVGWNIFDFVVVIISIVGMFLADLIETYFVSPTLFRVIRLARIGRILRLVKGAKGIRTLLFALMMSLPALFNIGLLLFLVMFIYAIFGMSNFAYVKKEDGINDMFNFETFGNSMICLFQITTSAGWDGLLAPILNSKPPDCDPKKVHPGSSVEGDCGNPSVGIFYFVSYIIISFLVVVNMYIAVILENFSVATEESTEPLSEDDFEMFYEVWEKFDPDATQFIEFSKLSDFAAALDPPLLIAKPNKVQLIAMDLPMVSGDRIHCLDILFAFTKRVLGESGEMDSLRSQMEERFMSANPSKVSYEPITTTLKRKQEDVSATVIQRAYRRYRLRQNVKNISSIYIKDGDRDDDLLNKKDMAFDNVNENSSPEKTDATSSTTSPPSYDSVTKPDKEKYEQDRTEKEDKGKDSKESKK

Structure (SMILES): CNC(=O)c1cccc(Nc2ncnc(N3CCN(Cc4ccccc4OC(F)(F)F)CC3)n2)c1 [Example 191]
IC50: 5.6 µM

Structure (SMILES): CNC(=O)c1cccc(Nc2ncnc(N3CC(Oc4ccccc4F)C3)n2)c1 [Example 192]
IC50: 5.6 µM

Structure (SMILES): CNC(=O)c1cccc(Nc2ncnc(N3CCC(Oc4ccc(F)c(OC(F)(F)F)c4)CC3)n2)c1 [Example 193]
IC50: 5.79 µM

Structure (SMILES): CNC(=O)c1cccc(Nc2ncnc(N3CC(Oc4ccc(C(F)(F)F)cc4Cl)C3)n2)c1 [Example 194]
IC50: 5.97 µM

Structure (SMILES): CNC(=O)c1cccc(Nc2ncnc(N3CCN(c4ccc(C#N)cc4)CC3)n2)c1 [Example 195]
IC50: 6.03 µM

Structure (SMILES): CNC(=O)c1cccc(Nc2ncnc(N3CCC(Cc4ccc(F)cc4)CC3)n2)c1 [Example 196]
IC50: 6.4 µM

Structure (SMILES): CNC(=O)c1cccc(Nc2ccnc(N3CC(COc4ccc(Cl)cc4)C3)n2)c1 [Example 197]
IC50: 6.8 µM

Structure (SMILES): CNC(=O)c1cccc(Nc2ncnc(N3CCN(c4ccc(F)cc4)CC3)n2)c1 [Example 198]
IC50: 6.83 µM

Structure (SMILES): CNC(=O)c1cccc(Nc2ncnc(N3CC(Oc4cccc(-c5ccccc5)c4)C3)n2)c1 [Example 199]
IC50: 7.02 µM

Structure (SMILES): NC(=O)c1cccc(Nc2ncnc(N3CCC(OCc4ccc(OC(F)(F)F)cc4)CC3)n2)c1 [Example 200]
IC50: 7.03 µM

Structure (SMILES): CNC(=O)c1cccc(Nc2ncnc(N3CC(COc4cccc(Cl)c4)C3)n2)c1 [Example 201]
IC50: 7.03 µM

Structure (SMILES): CNC(=O)c1cccc(Nc2ncnc(N3CCN(c4ccc(OC(F)(F)F)cc4)CC3)n2)c1C [Example 202]
IC50: 7.12 µM

Structure (SMILES): CNC(=O)c1cccc(Nc2ncnc(N3CCCN(Cc4ccccc4)CC3)n2)c1 [Example 203]
IC50: 7.42 µM

Structure (SMILES): CNC(=O)c1cccc(Nc2ncnc(N3CC(Oc4ccccc4OC)C3)n2)c1 [Example 204]
IC50: 7.42 µM

Structure (SMILES): O=C(NC1CC1)c1cccc(Nc2ncnc(N3CC(Oc4ccc(F)cc4)C3)n2)c1 [Example 205]
IC50: 7.42 µM

Structure (SMILES): CNC(=O)c1cccc(Nc2ncnc(N3CCC(OCc4ccccc4)CC3)n2)c1 [Example 206]
IC50: 7.93 µM

Structure (SMILES): CNC(=O)c1cccc(Nc2ncnc(N3CC(Oc4ccc(CC#N)cc4)C3)n2)c1 [Example 207]
IC50: 7.98 µM

Structure (SMILES): CNC(=O)c1cccc(Nc2ncnc(N3CC(COc4ccc(Cl)c(C(F)(F)F)c4)C3)n2)c1 [Example 208]
IC50: 8.11 µM

Structure (SMILES): CNC(=O)c1cccc(Nc2ncnc(N3CCC(Oc4ccccc4OC(F)(F)F)CC3)n2)c1 [Example 209]
IC50: 8.15 µM

Structure (SMILES): CNC(=O)c1cccc(Nc2ncnc(N3CC(Oc4ccc(C#N)cc4)C3)n2)c1 [Example 210]
IC50: 8.24 µM

Structure (SMILES): CNC(=O)c1cccc(Nc2ncnc(N3CCC3COc3ccc(Cl)cc3)n2)c1 (centres unmarked) [Example 211]
IC50: 8.3 µM

Structure (SMILES): CNC(=O)c1cccc(Nc2ncnc(N3CCCC(Oc4ccccc4Cl)C3)n2)c1 (centres unmarked) [Example 212]
IC50: 8.31 µM

Structure (SMILES): CC(C)(C)NC(=O)c1cccc(Nc2ncnc(N3CC(Oc4ccc(F)cc4)C3)n2)c1 [Example 213]
IC50: 8.39 µM

Structure (SMILES): CNC(=O)c1cccc(Nc2ncnc(N3CC(Oc4ccc(OCc5ccccc5)cc4)C3)n2)c1 [Example 214]
IC50: 8.47 µM

Structure (SMILES): CNC(=O)c1cccc(Nc2ncnc(N3CCC(c4ccc(C#N)c(C(F)(F)F)c4)CC3)n2)c1 [Example 215]
IC50: 8.59 µM

Structure (SMILES): CNC(=O)c1cccc(Nc2ncnc(N3CCc4cc(C(F)(F)F)ccc4C3)n2)c1 [Example 216]
IC50: 8.6 µM

Structure (SMILES): CNC(=O)c1cccc(Nc2ncnc(N3CC(Oc4ccccc4-c4ccccc4)C3)n2)c1 [Example 217]
IC50: 8.66 µM

Structure (SMILES): CNC(=O)c1cccc(Nc2cc(N3CC(Oc4ccc(F)cc4)C3)ncn2)c1 [Example 218]
IC50: 8.68 µM

Structure (SMILES): CNC(=O)c1cc(Nc2ncnc(N3CC(Oc4ccc(Cl)cc4)C3)n2)ccc1O [Example 219]
IC50: 8.82 µM

Structure (SMILES): CNC(=O)c1cccc(Nc2ncnc(N3CCc4ccc(OC)cc4C3)n2)c1 [Example 220]
IC50: 8.85 µM

Structure (SMILES): NC(=O)c1cccc(Nc2ncnc(N3CCc4cc(Br)ccc4C3)n2)c1 [Example 221]
IC50: 8.9 µM

Structure (SMILES): CNC(=O)c1cccc(Nc2ncnc(N3CCc4cc(OC)ccc4C3)n2)c1 [Example 222]
IC50: 8.96 µM

Structure (SMILES): CNC(=O)c1cccc(Nc2ncnc(N3CC(COc4ccc(OC)cc4)C3)n2)c1 [Example 223]
IC50: 9.19 µM

Structure (SMILES): CNC(=O)c1cccc(Nc2ncnc(N3CC(Oc4cc(Cl)cc(Cl)c4)C3)n2)c1 [Example 224]
IC50: 9.29 µM

Structure (SMILES): CNC(=O)c1cccc(Nc2ncnc(N3CCc4c(F)cccc4C3)n2)c1 [Example 225]
IC50: 9.31 µM

Structure (SMILES): CNC(=O)c1cccc(Nc2ncnc(N3CC(Oc4ccc(F)c(F)c4F)C3)n2)c1 [Example 226]
IC50: 9.35 µM

Structure (SMILES): Cc1ccc(N2CCN(c3ncnc(Nc4ccc(Cl)c(C(N)=O)c4)n3)CC2)cc1C [Example 227]
IC50: 9.36 µM

Structure (SMILES): CNC(=O)c1cccc(Nc2ncnc(N3CCC(OCc4ccc(F)c(F)c4)CC3)n2)c1 [Example 228]
IC50: 9.42 µM

Structure (SMILES): CNC(=O)c1cccc(Nc2ncnc(N3CC(COc4ccccc4OC(F)(F)F)C3)n2)c1 [Example 229]
IC50: 9.44 µM

Structure (SMILES): CNC(=O)c1cccc(Nc2ncnc(N3CCC(Cc4ccccc4)CC3)n2)c1 [Example 230]
IC50: 9.5 µM

Structure (SMILES): CNC(=O)c1cccc(Nc2ncnc(N3CCC(c4nc(C(C)C)no4)CC3)n2)c1 [Example 231]
IC50: 9.66 µM

Structure (SMILES): CNC(=O)c1cccc(Nc2ncnc(NCCCc3ccc(Cl)cc3)n2)c1 [Example 232]
IC50: 9.84 µM

Structure (SMILES): CNC(=O)c1cccc(Nc2ncnc(N3CCc4cc(OCCOC)ccc4C3)n2)c1 [Example 233]
IC50: 9.87 µM

Structure (SMILES): CNC(=O)c1cccc(Nc2ncnc(N3CC(COc4ccc5ccccc5c4)C3)n2)c1 [Example 234]
IC50: 10 µM

Structure (SMILES): NC(=O)c1cccc(Nc2ncnc(N3CCc4ccccc4C3)n2)c1 [Example 235]
IC50: 10.3 µM

Structure (SMILES): CNC(=O)c1cccc(Nc2ncnc(NCCOc3ccc(Cl)cc3)n2)c1 [Example 236]
IC50: 10.4 µM

Structure (SMILES): NC(=O)c1cccc(Nc2ncnc(N3CC(Oc4ccc(F)cc4)C3)n2)c1 [Example 237]
IC50: 10.7 µM

Structure (SMILES): CNC(=O)c1cccc(Nc2ncnc(N3CCC(Oc4ccccc4F)CC3)n2)c1 [Example 238]
IC50: 10.8 µM

The remaining molecules from weak to strong by IC50, led by results:

IC50: 5.58 µM
Structure (SMILES): CNC(=O)c1cccc(Nc2ncnc(N3CCC(n4cc(-c5ccccc5Cl)cn4)CC3)n2)c1 [Example 190]

IC50: 5.56 µM
Structure (SMILES): CNC(=O)c1cccc(Nc2ncnc(N3CC(COCc4ccc(C(F)(F)F)cc4)C3)n2)c1 [Example 189]

IC50: 5.44 µM
Structure (SMILES): CNC(=O)c1cccc(Nc2ncnc(N3CC(COc4cccc(C(F)(F)F)c4)C3)n2)c1 [Example 188]

IC50: 5.43 µM
Structure (SMILES): CNC(=O)c1cccc(Nc2ncnc(N3CC(Oc4cc(F)cc(F)c4)C3)n2)c1 [Example 187]

IC50: 5.28 µM
Structure (SMILES): CNC(=O)c1cccc(Nc2ncnc(N3CCc4cc(C)ccc4C3)n2)c1 [Example 185]

IC50: 5.23 µM
Structure (SMILES): CNC(=O)c1cccc(Nc2ncnc(N3CC(c4ccc(Cl)cc4)C3)n2)c1 [Example 184]

IC50: 5.19 µM
Structure (SMILES): CNC(=O)c1c(F)ccc(Nc2ncnc(N3CC(Oc4ccc(Cl)cc4)C3)n2)c1F [Example 183]

IC50: 5.1 µM
Structure (SMILES): CNC(=O)c1cccc(Nc2ncnc(N3CC(C)(Oc4ccc(C)cc4)C3)n2)c1 [Example 182]

IC50: 4.93 µM
Structure (SMILES): CNC(=O)c1cccc(Nc2ncnc(N3CC(Oc4ccccc4OC(F)(F)F)C3)n2)c1 [Example 181]

IC50: 4.85 µM
Structure (SMILES): CNC(=O)c1cccc(Nc2ncnc(N3CCN(Cc4ccc(OC(F)(F)F)cc4)CC3)n2)c1 [Example 180]

IC50: 4.84 µM
Structure (SMILES): CNC(=O)c1cccc(Nc2cc(N3CC(Oc4ccc(F)cc4)C3)ccn2)c1 [Example 179]

IC50: 4.78 µM
Structure (SMILES): CNC(=O)c1cccc(Nc2ncnc(N3CCN(c4ccccc4C(F)(F)F)CC3)n2)c1 [Example 178]

IC50: 4.72 µM
Structure (SMILES): CNC(=O)c1cccc(Nc2ncnc(N3CC(Oc4cc(F)ccc4F)C3)n2)c1 [Example 177]

IC50: 4.67 µM
Structure (SMILES): CNC(=O)c1cccc(Nc2ncnc(N3CCc4cc(F)ccc4C3)n2)c1 [Example 176]

IC50: 4.63 µM
Structure (SMILES): CNC(=O)c1cccc(Nc2ncnc(N3CCC(Oc4ccccn4)CC3)n2)c1 [Example 175]

IC50: 4.62 µM
Structure (SMILES): O=C(NCC(F)(F)F)c1cccc(Nc2ncnc(N3CC(Oc4ccc(F)cc4)C3)n2)c1 [Example 174]

IC50: 4.56 µM
Structure (SMILES): CNC(=O)c1cc(F)cc(Nc2ncnc(N3CC(COc4ccc(Cl)cc4)C3)n2)c1 [Example 173]

IC50: 4.45 µM
Structure (SMILES): CNC(=O)c1cccc(Nc2ncnc(N3CCN(c4ccccc4OC(F)(F)F)CC3)n2)c1 [Example 172]

IC50: 4.33 µM
Structure (SMILES): CNC(=O)c1cccc(Nc2ncnc(N3CC(COc4cccc(OC(F)(F)F)c4)C3)n2)c1 [Example 171]

IC50: 4.3 µM
Structure (SMILES): CNC(=O)c1cccc(Nc2ncnc(N3CCC(c4ccc(C#N)cc4)CC3)n2)c1 [Example 170]

IC50: 4.25 µM
Structure (SMILES): CNC(=O)c1cccc(Nc2ncnc(NCCCOc3ccc(C(F)(F)F)cc3)n2)c1 [Example 169]

IC50: 4.22 µM
Structure (SMILES): CNC(=O)c1cccc(Nc2ncnc(N3CCC(c4nc(-c5ccccc5)c(C)s4)CC3)n2)c1 [Example 168]

IC50: 4.16 µM
Structure (SMILES): CNC(=O)c1cccc(Nc2ncnc(N3CCC(n4cc(-c5ccc(Cl)cc5)cn4)CC3)n2)c1 [Example 167]

IC50: 4.05 µM
Structure (SMILES): CNC(=O)c1cccc(Nc2ncnc(N3CCC(Oc4ccc(Cl)c(OC(F)(F)F)c4)CC3)n2)c1 [Example 166]

IC50: 3.82 µM
Structure (SMILES): CNC(=O)c1ccc(F)c(Nc2ncnc(N3CC(Oc4ccc(F)cc4)C3)n2)c1 [Example 165]

IC50: 3.75 µM
Structure (SMILES): CNC(=O)c1cc(Nc2ncnc(NCCCOc3cccc(C(F)(F)F)c3)n2)ccc1Cl [Example 164]
